Data published in patent US20040224958A1, “Pyridopyrimidinone derivatives for treatment of neurodegenerative disease” (priority 2000, published 2004).
pIC50: −log10 of the molar value. Read-outs that look alike come from different tables or passages of the source.

What was measured:
cdk4/D = cdk4/D (Homo sapiens, UniProt P11802); assay: Cyclin-Dependent Kinase 4 (cdk4) Assay; assay type: biochemical; details: read-out: cdk4/D IC50
cdk2/cyclinA = cdk2/cyclinA (Homo sapiens, UniProt P24941); assay: Cyclin-Dependent Kinase Assay cdk2/cyclinA
cdk2/cyclinE = cdk2/cyclinE (Homo sapiens, UniProt P24941); assay: Cyclin-Dependent Kinase Assay cdk2/cyclinE
cdc2/cyclinB = cdc2/cyclinB (Homo sapiens, UniProt P06493); assay: Cyclin-Dependent Kinase Assay cdc2/cyclinB
Chain of cdc2/cyclinB (P06493 whole entry): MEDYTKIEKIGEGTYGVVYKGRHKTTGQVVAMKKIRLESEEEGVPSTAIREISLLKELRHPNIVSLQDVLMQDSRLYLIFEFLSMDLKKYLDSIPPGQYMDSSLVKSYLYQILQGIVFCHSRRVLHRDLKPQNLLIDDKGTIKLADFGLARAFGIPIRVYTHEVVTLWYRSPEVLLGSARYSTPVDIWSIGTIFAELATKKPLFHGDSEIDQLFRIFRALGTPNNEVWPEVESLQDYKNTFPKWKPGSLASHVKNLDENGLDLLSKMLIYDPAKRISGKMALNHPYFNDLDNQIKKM
Chain of cdc2/cyclinB (P14635 whole entry, further chain): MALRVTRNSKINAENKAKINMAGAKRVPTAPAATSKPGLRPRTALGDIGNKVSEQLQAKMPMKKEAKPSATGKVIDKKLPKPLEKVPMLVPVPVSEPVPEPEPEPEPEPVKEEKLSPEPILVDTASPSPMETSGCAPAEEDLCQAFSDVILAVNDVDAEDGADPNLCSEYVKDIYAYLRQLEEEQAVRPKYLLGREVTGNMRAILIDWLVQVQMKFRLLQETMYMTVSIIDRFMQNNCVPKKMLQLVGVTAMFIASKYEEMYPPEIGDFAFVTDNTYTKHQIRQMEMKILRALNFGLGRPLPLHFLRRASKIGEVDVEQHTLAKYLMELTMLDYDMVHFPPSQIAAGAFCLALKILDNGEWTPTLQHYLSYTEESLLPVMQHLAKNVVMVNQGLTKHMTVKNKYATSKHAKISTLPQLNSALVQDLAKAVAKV

Cdk5/p25 = Cdk5/p25 (Homo sapiens, UniProt Q00535); assay: Cyclin-Dependent Kinase 5 High Throughput Screening (cdk5-HTS) Assay; assay type: biochemical; details: high throughput screen
In short: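 Cdk5/p25 (1.0 μg/mL) phosphorylates GST-RbCOOH (20 μg/mL) in 50 mM Tris pH 7.4 with 10 mM MgCl2 and 20 μM ATP spiked with [γ33P]ATP, 30 min at room temperature. After EDTA stop, substrate captured on glutathione-coated plates; 33P incorporation counted by scintillation; IC50 determined.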

Chain of cdk4/D (P11802 whole entry): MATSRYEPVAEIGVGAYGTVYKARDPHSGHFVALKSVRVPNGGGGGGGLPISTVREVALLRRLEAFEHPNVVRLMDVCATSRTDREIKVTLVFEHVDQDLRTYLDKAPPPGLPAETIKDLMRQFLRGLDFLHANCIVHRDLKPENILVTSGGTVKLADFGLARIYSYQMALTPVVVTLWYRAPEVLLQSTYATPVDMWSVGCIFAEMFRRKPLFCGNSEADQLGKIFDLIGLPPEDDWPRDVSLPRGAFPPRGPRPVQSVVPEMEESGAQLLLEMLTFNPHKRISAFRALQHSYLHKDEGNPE
Chain of cdk4/D (P24385 whole entry, further chain): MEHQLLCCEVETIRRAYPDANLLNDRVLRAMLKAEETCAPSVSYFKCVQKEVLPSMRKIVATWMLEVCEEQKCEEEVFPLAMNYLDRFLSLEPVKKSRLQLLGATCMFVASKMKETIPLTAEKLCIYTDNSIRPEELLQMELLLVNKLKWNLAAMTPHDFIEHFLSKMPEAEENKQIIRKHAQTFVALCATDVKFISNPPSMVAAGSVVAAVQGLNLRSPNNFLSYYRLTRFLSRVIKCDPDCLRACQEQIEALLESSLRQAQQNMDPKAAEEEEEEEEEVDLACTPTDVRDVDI

| SMILES | pIC50 (cdk4/D) | pIC50 (cdk2/cyclinA; cdk2/A IC50) | pIC50 (cdk2/cyclinE; cdk2/E IC50) | pIC50 (cdc2/cyclinB) | pIC50 (Cdk5/p25) | pIC50 (cdk2/cyclinA; read-out: cdk2/A IC50) | pIC50 (cdk2/cyclinE; read-out: cdk2/E IC50) | pIC50 (cdc2/cyclinB; read-out: cdk1/B IC50) |
| --- | --- | --- | --- | --- | --- | --- | --- | --- |
| CCC(C)n1c(=O)ccc2cnc(Nc3cc(OC)c(OC)c(OC)c3)nc21 (stereo not drawn) [Example 457, 8-sec-Butyl-2-(3,4,5-trimethoxy-phenylamino)-8H-pyrido[2,3-d]pyrimidin-7-one] | 5.62 | 6.12 | 6.60 | 6.47 | 6.55 | – | – | – |
| CCCn1c(=O)ccc2cnc(Nc3ccc(O)c(C)c3)nc21 [Example 354, 2-(4-Hydroxy-3-methyl-phenylamino)-8-propyl-8H-pyrido[2,3-d]pyrimidin-7-one] | 6.04 | 5.96 | 5.92 | 5.80 | 6.11 | – | – | – |
| CCn1c(=O)ccc2cnc(Nc3ccc(S(N)(=O)=O)cc3)nc21 [Example 295, 4-(8-Ethyl-7-oxo-7,8-dihydro-pyrido[2,3-d]pyrimidin-2-ylamino)-benzenesulfonamide] | 6.02 | 6.89 | 7.24 | 6.41 | 7.19 | – | – | – |
| CCCCn1c(=O)ccc2cnc(Nc3ccc(C(N)=O)cc3)nc21 [Example 371, 4-(S-Butyl-7-oxo-7,8-dihydro-pyrido[2,3-d]pyrimidin-2-ylamino)-benzamide] | 6.48 | – | – | – | 6.63 | 6.16 | 6.54 | 6.43 |
| Cc1cc(Nc2ncc3ccc(=O)n(C4CCCC4)c3n2)cc(C)c1O [Example 559, 8-Cyclopentyl-2-(4-hydroxy-3,5-dimethyl-phenylamino)-8H-pyrido[2,3-d]pyrimidin-7-one] | 6.57 | 7.06 | 7.04 | 7.09 | 7.03 | – | – | – |
| CC(=O)N(C)c1ccc(Nc2ncc3ccc(=O)n(C(C)C)c3n2)cc1 [Example 432, N-[4-(8-Isopropyl-7-oxo-7,8-dihydro-pyrido[2,3-d]pyrimidin-2-ylamino)-phenyl]-N-methyl-acetamide] | 6.82 | 6.38 | 6.41 | 6.27 | 7.22 | – | – | – |
| CCC(CC)n1c(=O)ccc2cnc(Nc3cc(C)c(O)c(C)c3)nc21 [Example 523, 8-(1-Ethyl-propyl)-2-(4-hydroxy-3,5-dimethyl-phenylamino)-8H-pyrido[2,3-d]pyrimidin-7-one] | 6.41 | 6.80 | 7.34 | 7.03 | 7.55 | – | – | – |
| CCC(CC)n1c(=O)ccc2cnc(Nc3ccc(C(F)(F)F)cc3)nc21 [Example 526, 8-(1-Ethyl-propyl)-2-(4-trifluoromethyl-phenylamino)-8H-pyrido[2,3-d]pyrimidin-7-one] | 7.07 | 6.80 | 6.70 | 6.85 | 7.06 | – | – | – |
| O=c1ccc2cnc(Nc3ccc(F)c([N+](=O)[O-])c3)nc2n1CC1CC1 [Example 576, 8-Cyclopropylmethyl-2-(4-fluoro-3-nitro-phenylamino)-8H-pyrido[2,3-d]pyrimidin-7-one] | 6.38 | 6.31 | 6.34 | 6.19 | 6.39 | – | – | – |
| CC(C)n1c(=O)ccc2cnc(Nc3ccc(C(F)(F)F)cc3)nc21 [Example 443, 8-Isopropyl-2-(4-trifluoromethyl-phenylamino)-8H-pyrido[2,3-d]pyrimidin-7-one] | 6.49 | 6.70 | 6.77 | 6.28 | 7.15 | – | – | – |
| CCC(C)n1c(=O)ccc2cnc(Nc3ccccc3)nc21 (stereo not drawn) [Example 446, 8-sec-Butyl-2-phenylamino-8H-pyrido[2,3-d]pyrimidin-7-one] | 6.78 | 6.67 | 6.75 | 6.47 | 7.13 | – | – | – |
| COc1cc(Nc2ncc3ccc(=O)n(CC4CC4)c3n2)cc(OC)c1OC [Example 569, 8-Cyclopropylmethyl-2-(3,4,5-trimethoxy-phenylamino)-8H-pyrido[2,3-d]pyrimidin-7-one] | 5.46 | 5.80 | 6.59 | 6.25 | 6.51 | – | – | – |
| CCCCn1c(=O)ccc2cnc(Nc3ccc(O)c(Cl)c3)nc21 [Example 383, 8-Butyl-2-(3-chloro-4-hydroxy-phenylamino)-8H-pyrido[2,3-d]pyrimidin-7-one] | 6.80 | 7.02 | 7.60 | 7.34 | 7.33 | – | – | – |
| CCC(CC)n1c(=O)ccc2cnc(Nc3ccc(OC)c(F)c3)nc21 [Example 505, 8-(1-Ethyl-propyl)-2-(3-fluoro-4-methoxy-phenylamino)-8H-pyrido[2,3-d]pyrimidin-7-one] | 7.47 | 6.66 | 7.17 | 7.14 | 7.85 | – | – | – |
| CCCCn1c(=O)ccc2cnc(Nc3ccc(C#N)c(NC(C)=O)c3)nc21 [Example 395, N-[5-(8-Butyl-7-oxo-7,8-dihydro-pyrido[2,3-d]pyrimidin-2-ylamino)-2-cyano-phenyl]-acetamide] | 7.05 | 6.47 | 7.07 | 6.66 | 7.04 | – | – | – |
| CCCCn1c(=O)ccc2cnc(Nc3cc(F)cc(F)c3)nc21 [Example 404, 8-Butyl-2-(3,5-difluoro-phenylamino)-8H-pyrido[2,3-d]pyrimidin-7-one] | 5.72 | 6.19 | 6.52 | 6.21 | 6.55 | – | – | – |
| CCC(C)n1c(=O)ccc2cnc(Nc3ccc(OC)c(F)c3)nc21 (stereo not drawn) [Example 462, 8-sec-Butyl-2-(3-fluoro-4-methoxy-phenylamino)-8H-pyrido[2,3-d]pyrimidin-7-one] | – | 7.11 | 7.22 | 7.06 | 8.00 | – | – | – |
| CCn1c(=O)ccc2cnc(Nc3cc(F)cc(F)c3)nc21 [Example 303, 2-(3,5-Difluoro-phenylamino)-8-ethyl-8H-pyrido[2,3-d]pyrimidin-7-one] | – | 5.92 | 6.08 | 6.03 | 6.33 | – | – | – |
| CCC(CC)n1c(=O)ccc2cnc(Nc3cc(OC)c(OC)c(OC)c3)nc21 [Example 501, 8-(1-Ethyl-propyl)-2-(3,4,5-trimethoxy-phenylamino)-8H-pyrido[2,3-d]pyrimidin-7-one] | – | 6.12 | 6.62 | 6.55 | 7.09 | – | – | – |
| CCCn1c(=O)ccc2cnc(Nc3cc(F)cc(F)c3)nc21 [Example 349, 2-(3,5-Difluoro-phenylamino)-8-propyl-8H-pyrido[2,3-d]pyrimidin-7-one] | – | 5.96 | 6.28 | 6.06 | 6.70 | – | – | – |
| CCC(C)n1c(=O)ccc2cnc(Nc3cccc(C(F)(F)F)c3)nc21 (stereo not drawn) [Example 477, 8-sec-Butyl-2-(3-trifluoromethyl-phenylamino)-8H-pyrido[2,3-d]pyrimidin-7-one] | – | 6.43 | 6.59 | 6.77 | 7.42 | – | – | – |
| CCCn1c(=O)ccc2cnc(Nc3ccc(Cl)c(C(F)(F)F)c3)nc21 [Example 312, 2-(4-Chloro-3-trifluoromethyl-phenylamino)-8-propyl-8H-pyrido[2,3-d]pyrimidin-7-one] | – | – | – | – | 6.95 | 5.57 | 6.48 | 6.57 |
| CCn1c(=O)ccc2cnc(Nc3cccc(C(F)(F)F)c3)nc21 [Example 305, 8-Ethyl-2-(3-trifluoromethyl-phenylamino)-8H-pyrido[2,3-d]pyrimidin-7-one] | – | 5.96 | 6.17 | 6.26 | 6.62 | – | – | – |
